Laboratory results from the supplement of paper PMC11061612.

Key:
[1] = test system: EB-3 (Burkitt's Lymphoma); test: combination Emax (second highest fraction inhibited in the dose matrix, 72 h); higher = more inhibition; extreme values may be limits of the assay
Summary of the method: (§1)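 After 24 hours at 37°C and 5% CO2 in 1536-well plates, cells in DMEM/F12 or RPMI plus 10% FBS received two-drug dose matrices for 72 hours. Viability came from CellTiter-Glo 2.0 luminescence and was scaled as inhibition, anchored at 0 by vehicle wells and at 1 by blank wells. Combination Emax is taken as the second-highest inhibition in the matrix, and Bliss excess as the observed combination effect less EA + EB − EA·EB, with EA and EB the single-agent effects.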

[2] = test system: CML-T1 (Chronic Myelogenous Leukemia); test: as above
Summary of the method: as §1

[3] = test system: COLO-684 (Endometrial Carcinoma); test: as above
Summary of the method: as §1

[4] = test system: PC-14 (Lung Adenocarcinoma); test: as above
Summary of the method: as §1

[5] = test system: NCI-H1755 (Lung Adenocarcinoma); test: as above
Summary of the method: as §1

KYM-1 (Rhabdomyosarcoma) [6] = test: as above
Summary of the method: as §1

[7] = test system: Becker (Low Grade Glioma); test: as above
Summary of the method: as §1

[8] = test system: OV-90 (Ovarian Carcinoma); test: as above
Summary of the method: as §1

[9] = test system: LOUCY (T-Lymphoblastic Leukemia); test: as above
Summary of the method: as §1

[10] = test system: NKM-1 (Acute Myeloid Leukemia); test: as above
Summary of the method: as §1

[11] = test system: LAMA-84 (Chronic Myelogenous Leukemia); test: as above
Summary of the method: as §1

[12] = test system: SW684 (Other Solid Carcinomas); test: as above
Summary of the method: as §1

[13] = test system: PANC-02-03 (Pancreatic Carcinoma); test: as above
Summary of the method: as §1

[14] = test system: FLO-1 (Esophageal Adenocarcinoma); test: as above
Summary of the method: as §1

[15] = test system: RMG-I (Ovarian Carcinoma); test: as above
Summary of the method: as §1

[16] = test system: KYSE-70 (Esophageal Squamous Cell Carcinoma); test: as above
Summary of the method: as §1

CHL-1 (Melanoma) [17] = test: as above
Summary of the method: as §1

[18] = test system: SK-MM-2 (Plasma Cell Myeloma); test: as above
Summary of the method: as §1

[19] = test system: NCI-H810 (Non-Small Cell Lung Carcinoma); test: as above
Summary of the method: as §1

[20] = test system: HCC-44 (Lung Adenocarcinoma); test: as above
Summary of the method: as §1

[21] = test system: EB-3 (Burkitt's Lymphoma); test: Bliss excess, mean over the matrix (fraction); higher = more synergy
Summary of the method: as §1

[22] = test system: CML-T1 (Chronic Myelogenous Leukemia); test: as above
Summary of the method: as §1

[23] = test system: COLO-684 (Endometrial Carcinoma); test: as above
Summary of the method: as §1

[24] = test system: PC-14 (Lung Adenocarcinoma); test: as above
Summary of the method: as §1

[25] = test system: NCI-H1755 (Lung Adenocarcinoma); test: as above
Summary of the method: as §1

KYM-1 (Rhabdomyosarcoma) [26] = test: as above
Summary of the method: as §1

[27] = test system: Becker (Low Grade Glioma); test: as above
Summary of the method: as §1

[28] = test system: OV-90 (Ovarian Carcinoma); test: as above
Summary of the method: as §1

[29] = test system: LOUCY (T-Lymphoblastic Leukemia); test: as above
Summary of the method: as §1

[30] = test system: NKM-1 (Acute Myeloid Leukemia); test: as above
Summary of the method: as §1

[31] = test system: LAMA-84 (Chronic Myelogenous Leukemia); test: as above
Summary of the method: as §1

[32] = test system: SW684 (Other Solid Carcinomas); test: as above
Summary of the method: as §1

[33] = test system: PANC-02-03 (Pancreatic Carcinoma); test: as above
Summary of the method: as §1

[34] = test system: FLO-1 (Esophageal Adenocarcinoma); test: as above
Summary of the method: as §1

[35] = test system: RMG-I (Ovarian Carcinoma); test: as above
Summary of the method: as §1

[36] = test system: KYSE-70 (Esophageal Squamous Cell Carcinoma); test: as above
Summary of the method: as §1

CHL-1 (Melanoma) [37] = test: as above
Summary of the method: as §1

[38] = test system: SK-MM-2 (Plasma Cell Myeloma); test: as above
Summary of the method: as §1

[39] = test system: NCI-H810 (Non-Small Cell Lung Carcinoma); test: as above
Summary of the method: as §1

[40] = test system: HCC-44 (Lung Adenocarcinoma); test: as above
Summary of the method: as §1
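Wherever Bliss excess, mean over the matrix is given: after 72 h of two-drug dosing.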

Row | SMILES | combination Emax [1] | combination Emax [2] | combination Emax [3] | combination Emax [4] | combination Emax [5] | combination Emax (KYM-1 (Rhabdomyosarcoma) [6]) | combination Emax [7] | combination Emax [8] | combination Emax [9] | combination Emax [10] | combination Emax [11] | combination Emax [12] | combination Emax [13] | combination Emax [14] | combination Emax [15] | combination Emax [16] | combination Emax (CHL-1 (Melanoma) [17]) | combination Emax [18] | combination Emax [19] | combination Emax [20] | Bliss excess [21] | Bliss excess [22] | Bliss excess [23] | Bliss excess [24] | Bliss excess [25] | Bliss excess (KYM-1 (Rhabdomyosarcoma) [26]) | Bliss excess [27] | Bliss excess [28] | Bliss excess [29] | Bliss excess [30] | Bliss excess [31] | Bliss excess [32] | Bliss excess [33] | Bliss excess [34] | Bliss excess [35] | Bliss excess [36] | Bliss excess (CHL-1 (Melanoma) [37]) | Bliss excess [38] | Bliss excess [39] | Bliss excess [40]
1 | O=C(c1cc(Cc2n[nH]c(=O)c3ccccc23)ccc1F)N1CCN(C(=O)C2CC2)CC1 [Olaparib] + Cc1c2c(nn1C)CSCc1cc(n(C)n1)CSc1cc(c3ccccc3c1)OCCCc1c(C(=O)O)n(C)c3c-2c(Cl)ccc13 [AZD5991] (first compound max 10 µM, 7x7, partner max 1 µM) | 0.0218 | 0.832 | 0.224 | 0.0956 | 0.18 | 0.832 | 0.22 | 0.114 | 0.234 | 1 | 0.223 | 0.0699 | 0.128 | 0.253 | 0.123 | 0.104 | 0.312 | 0.111 | 0.49 | 0.117 | -0.0579 | -0.0255 | -0.0104 | -0.0279 | -0.0215 | 0.0435 | -0.0125 | -0.0554 | -0.0086 | 0.0786 | -0.0136 | -0.0763 | -0.0465 | -0.0102 | -0.0627 | -0.032 | -0.0174 | -0.0093 | -0.0578 | -0.0267
2 | O=C(c1cc(Cc2n[nH]c(=O)c3ccccc23)ccc1F)N1CCN(C(=O)C2CC2)CC1 [Olaparib] + CN(CC[C@H](CSC1=CC=CC=C1)NC2=C(C=C(C=C2)S(=O)(=O)NC(=O)C3=CC=C(C=C3)N4CCC(CC4)[C@H](C5=CC=CC=C5C6=CC=C(C=C6)Cl)O)S(=O)(=O)C(F)(F)F)CCO [AZD4320] (first compound max 10 µM, 7x7, partner max 1 µM) | 0.158 | 0.999 | 0.213 | 0.199 | 0.159 | 0.576 | 0.164 | 0.546 | 1 | 1 | 0.617 | 0.228 | 0.198 | 0.39 | 0.534 | 0.151 | 0.2 | 1 | 0.659 | 0.173 | -0.0394 | 0.0456 | -0.0372 | -0.0113 | -0.0387 | -0.0543 | 0.0148 | -0.0165 | -0.0261 | 0.0827 | -0.0603 | -0.0717 | -0.0488 | -0.0338 | -0.0382 | -0.0377 | -0.0175 | 0.0047 | -0.0701 | -0.0367
3 | CS(=O)(=O)CCNCc1ccc(-c2ccc3ncnc(Nc4ccc(OCc5cccc(F)c5)c(Cl)c4)c3c2)o1 [Lapatinib] + Cn1cnc2c(F)c(Nc3ccc(Br)cc3Cl)c(C(=O)NOCCO)cc21 [Selumetinib] (first compound max 10 µM, 7x7, partner max 10 µM) | 0.697 | 0.637 | 0.349 | 0.989 | 0.539 | 0.407 | 0.579 | 0.729 | 0.584 | 0.652 | 0.912 | 0.281 | 0.805 | 0.572 | 0.586 | 0.214 | 0.475 | 0.126 | 0.121 | 0.749 | -0.0414 | -0.0822 | -0.0658 | 0.0206 | -0.0173 | 0.0148 | -0.0589 | -0.0289 | 0.0378 | 0.0001 | 0.0352 | -0.0411 | 0.0604 | -0.004 | -0.0833 | -0.0319 | -0.0114 | -0.0116 | -0.0554 | 0.0326
4 | N#Cc1cnc(Nc2cc(NC[C@H]3CNCCO3)c(C(F)(F)F)cn2)cn1 [SRA737] + CCc1c2c(nc3ccc(O)cc13)-c1cc3c(c(=O)n1C2)COC(=O)[C@]3(O)CC [SN-38] (first compound max 10 µM, 7x7, partner max 0.3 µM) | 0.828 | 1 | 0.878 | 0.816 | 0.871 | 0.945 | 0.865 | 0.519 | 0.952 | 0.995 | 0.953 | 0.459 | 0.674 | 0.815 | 0.484 | 0.683 | 0.807 | 0.776 | 0.829 | 0.904 | -0.0157 | -0.0022 | 0.0144 | 0.0164 | -0.0327 | -0.0207 | -0.0297 | -0.0976 | 0.102 | -0.0365 | -0.023 | -0.0846 | -0.0673 | 0.0593 | -0.0426 | 0.0857 | 0.0724 | 0.014 | 0.0918 | 0.124
5 | Cc1c2c(nn1C)CSCc1cc(n(C)n1)CSc1cc(c3ccccc3c1)OCCCc1c(C(=O)O)n(C)c3c-2c(Cl)ccc13 [AZD5991] + CS(=O)(=O)CCNCc1ccc(-c2ccc3ncnc(Nc4ccc(OCc5cccc(F)c5)c(Cl)c4)c3c2)o1 [Lapatinib] (first compound max 1 µM, 7x7, partner max 10 µM) | 0.6 | 0.24 | 0.421 | 0.963 | 0.755 | 0.589 | 0.277 | 0.247 | 0.688 | 0.995 | 0.165 | 0.177 | 0.368 | 0.537 | 0.532 | 0.177 | 0.835 | 0.115 | 0.261 | 0.352 | -0.0068 | 0.0228 | -0.114 | 0.0203 | -0.015 | 0.0243 | -0.0011 | -0.0817 | 0.0351 | -0.0148 | 0.0258 | -0.116 | -0.0159 | -0.0454 | 0.0088 | -0.0329 | 0.0766 | -0.0011 | -0.0722 | -0.0301
6 | Cc1c2c(nn1C)CSCc1cc(n(C)n1)CSc1cc(c3ccccc3c1)OCCCc1c(C(=O)O)n(C)c3c-2c(Cl)ccc13 [AZD5991] + CC(=O)O[C@H]1C(=O)[C@@]2(C)[C@H]([C@H](OC(=O)c3ccccc3)[C@]3(O)C[C@H](OC(=O)[C@H](O)[C@@H](NC(=O)c4ccccc4)c4ccccc4)C(C)=C1C3(C)C)[C@]1(OC(C)=O)CO[C@@H]1C[C@@H]2O [Paclitaxel] (first compound max 1 µM, 7x7, partner max 3 µM) | 0.685 | 0.954 | 0.558 | 0.947 | 0.734 | 1 | 0.982 | 0.379 | 0.898 | 1 | 0.895 | 0.52 | 0.427 | 0.928 | 0.322 | 0.534 | 1 | 0.34 | 0.871 | 0.83 | -0.0558 | -0.0139 | 0.0057 | -0.0298 | -0.0385 | 0.0663 | 0.0068 | 0.0575 | -0.051 | 0.0294 | -0.0161 | -0.0818 | -0.0131 | -0.0172 | -0.0514 | 0.0855 | 0.0482 | 0.0033 | 0.125 | -0.0764
